{"source": "patent US20220218852A1", "about": "“NOVEL RADIOLABELLED CXCR4-TARGETING COMPOUNDS FOR DIAGNOSIS AND THERAPY” (PROVINCIAL HEALTH SERVICES AUTHORITY, priority 2019, published 2022)", "key": {"[1]": {"experiment": "Biodistribution in Daudi tumor-bearing mice", "assay_type": "in vivo", "details": "male, NOD.Cg-Rag1^tm1MomII2rg^tm1Wjl/SzJ (NRG), mouse, iv, total radioactivity, Daudi xenograft bearing mice", "protocol": "(§1) For Daudi, Z138, GRANTA519 and Jeko1 xenografts, male NOD.Cg-Rag1^tm1MomII2rg^tm1Wjl/SzJ (NRG) mice were subcutaneously inoculated on the left flank with 5×10^6 cells (100 μL; 1:1 ratio of PBS/Matrigel) and tumors were grown to a size of 200-500 mm^3. For PC-3 xenografts, male NOD.Cg-Rag1^tm1MomII2rg^tm1Wjl/SzJ (NRG) mice were subcutaneously inoculated on the left flank with 5×10^6 PC-3 cells (100 μL; 1:1 ratio of PBS/Matrigel) and tumors were grown to a size of 200-400 mm^3.\n(§2) The mice were euthanized via CO2 inhalation while anesthetized with isoflurane. Tissues were harvested, washed in PBS, blotted dry, weighed, and measured on a Hidex AMG Automatic Gamma Counter."}, "[2]": {"tested_on": "Daudi Burkitt's lymphoma xenografts", "experiment": "Biodistribution in Daudi tumor-bearing mice", "assay_type": "in vivo", "details": "Daudi xenograft bearing mice", "protocol": "as §1, §2"}, "[3]": {"details": "1 h blocked (7.5 μg LY2510924 i.p. 15 min before tracer)"}}, "note": "Where two headings read alike, the source gives them in different places. Positions of bridges follow the written chain, without caps; N, C: chain ends. Non-standard residues stand in square brackets, D forms with d. Residues, ends and D or L forms follow the SMILES beside them. Groups on a side chain read outwards from the residue. *: point of attachment. DOTA = O=C(O)CN1CCN(CC(=O)O)CCN(CC(=O)*)CCN(CC(=O)O)CC1; 2Nal = N[C@@H](Cc1ccc2ccccc2c1)C(=O)O; Lys(iPr) = CC(C)NCCCC[C@H](N)C(=O)O"}
{"smiles": "CC(C)NCCCC[C@@H]1NC(=O)[C@H](Cc2ccc(O)cc2)NC(=O)[C@H](Cc2ccccc2)NC(=O)CC[C@H](C(=O)N[C@@H](CCCCNC(C)C)C(=O)N[C@@H](CCCCNC(=O)[C@@H](CCC(=O)O)NC(=O)[C@@H](CCC(=O)O)NC(=O)[C@@H](CCC(=O)O)NC(=O)CN2CCN(CC(=O)O)CCN(CC(=O)O)CCN(CC(=O)O)CC2)C(N)=O)NC(=O)CNC(=O)[C@H](Cc2ccc3ccccc3c2)NC(=O)[C@@H](CCCNC(=N)N)NC1=O", "note": "[[^68Ga]Ga-BL20, metal not drawn] (FY[Lys(iPr)][dR][2Nal]G[dE][Lys(iPr)]K([dE-dE-dE-DOTA])-NH2; lactam N-7)", "values": [{"measurement": "tissue uptake at 1 h", "setting": "[1]; Daudi tumour, 1 h, read-out: Biodistribution Daudi (tumour)", "value": 9.07, "unit": "%ID/g"}, {"measurement": "tissue uptake at 1 h", "setting": "[1]; Daudi tumour, 1 h blocked (7.5 μg LY2510924 i.p. 15 min before tracer), read-out: Biodistribution Daudi (tumour)", "value": 0.59, "unit": "%ID/g"}, {"measurement": "tissue uptake at 2 h", "setting": "[1]; Daudi tumour, read-out: Biodistribution Daudi (tumour)", "value": 8.01, "unit": "%ID/g"}, {"measurement": "tissue uptake at 1 h", "setting": "[1]; adrenals, 1 h, read-out: Biodistribution Adrenals", "value": 0.35, "unit": "%ID/g"}, {"measurement": "tissue uptake at 1 h", "setting": "[1]; adrenals, 1 h blocked (7.5 μg LY2510924 i.p. 15 min before tracer), read-out: Biodistribution Adrenals", "value": 0.35, "unit": "%ID/g"}, {"measurement": "tissue uptake at 2 h", "setting": "[1]; adrenals, read-out: Biodistribution Adrenals", "value": 0.27, "unit": "%ID/g"}, {"measurement": "tissue uptake at 1 h", "setting": "[1]; blood, 1 h, read-out: Biodistribution Blood", "value": 0.42, "unit": "%ID/g"}, {"measurement": "tissue uptake at 1 h", "setting": "[1]; blood, 1 h blocked (7.5 μg LY2510924 i.p. 15 min before tracer), read-out: Biodistribution Blood", "value": 0.65, "unit": "%ID/g"}, {"measurement": "tissue uptake at 2 h", "setting": "[1]; blood, read-out: Biodistribution Blood", "value": 0.08, "unit": "%ID/g"}, {"measurement": "tissue uptake at 1 h", "setting": "[1]; bone, 1 h, read-out: Biodistribution Bone", "value": 0.17, "unit": "%ID/g"}, {"measurement": "tissue uptake at 1 h", "setting": "[1]; bone, 1 h blocked (7.5 μg LY2510924 i.p. 15 min before tracer), read-out: Biodistribution Bone", "value": 0.15, "unit": "%ID/g"}, {"measurement": "tissue uptake at 2 h", "setting": "[1]; bone, read-out: Biodistribution Bone", "value": 0.05, "unit": "%ID/g"}, {"measurement": "tissue uptake at 1 h", "setting": "[1]; brain, 1 h, read-out: Biodistribution Brain", "value": 0.01, "unit": "%ID/g"}, {"measurement": "tissue uptake at 1 h", "setting": "[1]; brain, 1 h blocked (7.5 μg LY2510924 i.p. 15 min before tracer), read-out: Biodistribution Brain", "value": 0.02, "unit": "%ID/g"}, {"measurement": "tissue uptake at 2 h", "setting": "[1]; brain, read-out: Biodistribution Brain", "value": 0.01, "unit": "%ID/g"}, {"measurement": "tissue uptake at 1 h", "setting": "[1]; fat, 1 h, read-out: Biodistribution Fat", "value": 0.06, "unit": "%ID/g"}, {"measurement": "tissue uptake at 1 h", "setting": "[1]; fat, 1 h blocked (7.5 μg LY2510924 i.p. 15 min before tracer), read-out: Biodistribution Fat", "value": 0.12, "unit": "%ID/g"}, {"measurement": "tissue uptake at 2 h", "setting": "[1]; fat, read-out: Biodistribution Fat", "value": 0.01, "unit": "%ID/g"}, {"measurement": "tissue uptake at 1 h", "setting": "[1]; heart, 1 h, read-out: Biodistribution Heart", "value": 0.15, "unit": "%ID/g"}, {"measurement": "tissue uptake at 1 h", "setting": "[1]; heart, 1 h blocked (7.5 μg LY2510924 i.p. 15 min before tracer), read-out: Biodistribution Heart", "value": 0.22, "unit": "%ID/g"}, {"measurement": "tissue uptake at 2 h", "setting": "[1]; heart, read-out: Biodistribution Heart", "value": 0.05, "unit": "%ID/g"}, {"measurement": "tissue uptake at 1 h", "setting": "[1]; intestine, 1 h, read-out: Biodistribution Intestine", "value": 0.21, "unit": "%ID/g"}, {"measurement": "tissue uptake at 1 h", "setting": "[1]; intestine, 1 h blocked (7.5 μg LY2510924 i.p. 15 min before tracer), read-out: Biodistribution Intestine", "value": 0.37, "unit": "%ID/g"}, {"measurement": "tissue uptake at 2 h", "setting": "[1]; intestine, read-out: Biodistribution Intestine", "value": 0.25, "unit": "%ID/g"}, {"measurement": "tissue uptake at 1 h", "setting": "[1]; kidney, 1 h, read-out: Biodistribution Kidney", "value": 3.58, "unit": "%ID/g"}, {"measurement": "tissue uptake at 1 h", "setting": "[1]; kidney, 1 h blocked (7.5 μg LY2510924 i.p. 15 min before tracer), read-out: Biodistribution Kidney", "value": 5.92, "unit": "%ID/g"}, {"measurement": "tissue uptake at 2 h", "setting": "[1]; kidney, read-out: Biodistribution Kidney", "value": 3.02, "unit": "%ID/g"}, {"measurement": "tissue uptake at 1 h", "setting": "[1]; liver, 1 h, read-out: Biodistribution Liver", "value": 0.58, "unit": "%ID/g"}, {"measurement": "tissue uptake at 1 h", "setting": "[1]; liver, 1 h blocked (7.5 μg LY2510924 i.p. 15 min before tracer), read-out: Biodistribution Liver", "value": 0.44, "unit": "%ID/g"}, {"measurement": "tissue uptake at 2 h", "setting": "[1]; liver, read-out: Biodistribution Liver", "value": 0.51, "unit": "%ID/g"}, {"measurement": "tissue uptake at 1 h", "setting": "[1]; lung, 1 h, read-out: Biodistribution Lung", "value": 0.51, "unit": "%ID/g"}, {"measurement": "tissue uptake at 1 h", "setting": "[1]; lung, 1 h blocked (7.5 μg LY2510924 i.p. 15 min before tracer), read-out: Biodistribution Lung", "value": 0.71, "unit": "%ID/g"}, {"measurement": "tissue uptake at 2 h", "setting": "[1]; lung, read-out: Biodistribution Lung", "value": 0.22, "unit": "%ID/g"}, {"measurement": "tissue uptake at 1 h", "setting": "[1]; muscle, 1 h, read-out: Biodistribution Muscle", "value": 0.08, "unit": "%ID/g"}, {"measurement": "tissue uptake at 1 h", "setting": "[1]; muscle, 1 h blocked (7.5 μg LY2510924 i.p. 15 min before tracer), read-out: Biodistribution Muscle", "value": 0.13, "unit": "%ID/g"}, {"measurement": "tissue uptake at 2 h", "setting": "[1]; muscle, read-out: Biodistribution Muscle", "value": 0.02, "unit": "%ID/g"}, {"measurement": "tissue uptake at 1 h", "setting": "[1]; pancreas, 1 h, read-out: Biodistribution Pancreas", "value": 0.11, "unit": "%ID/g"}, {"measurement": "tissue uptake at 1 h", "setting": "[1]; pancreas, 1 h blocked (7.5 μg LY2510924 i.p. 15 min before tracer), read-out: Biodistribution Pancreas", "value": 0.16, "unit": "%ID/g"}, {"measurement": "tissue uptake at 2 h", "setting": "[1]; pancreas, read-out: Biodistribution Pancreas", "value": 0.04, "unit": "%ID/g"}, {"measurement": "tissue uptake at 1 h", "setting": "[1]; spleen, 1 h, read-out: Biodistribution Spleen", "value": 0.49, "unit": "%ID/g"}, {"measurement": "tissue uptake at 1 h", "setting": "[1]; spleen, 1 h blocked (7.5 μg LY2510924 i.p. 15 min before tracer), read-out: Biodistribution Spleen", "value": 0.3, "unit": "%ID/g"}, {"measurement": "tissue uptake at 2 h", "setting": "[1]; spleen, read-out: Biodistribution Spleen", "value": 0.21, "unit": "%ID/g"}, {"measurement": "tissue uptake at 1 h", "setting": "[1]; stomach, 1 h, read-out: Biodistribution Stomach", "value": 0.05, "unit": "%ID/g"}, {"measurement": "tissue uptake at 1 h", "setting": "[1]; stomach, 1 h blocked (7.5 μg LY2510924 i.p. 15 min before tracer), read-out: Biodistribution Stomach", "value": 0.24, "unit": "%ID/g"}, {"measurement": "tissue uptake at 2 h", "setting": "[1]; stomach, read-out: Biodistribution Stomach", "value": 0.05, "unit": "%ID/g"}, {"measurement": "tissue uptake at 1 h", "setting": "[1]; testes, 1 h, read-out: Biodistribution Testes", "value": 0.15, "unit": "%ID/g"}, {"measurement": "tissue uptake at 1 h", "setting": "[1]; testes, 1 h blocked (7.5 μg LY2510924 i.p. 15 min before tracer), read-out: Biodistribution Testes", "value": 0.2, "unit": "%ID/g"}, {"measurement": "tissue uptake at 2 h", "setting": "[1]; testes, read-out: Biodistribution Testes", "value": 0.05, "unit": "%ID/g"}, {"measurement": "Ratio Tumour:Blood", "setting": "[2]; 1 h", "value": 22.78}, {"measurement": "Ratio Tumour:Bone", "setting": "[2]; 1 h", "value": 54.57}, {"measurement": "Ratio Tumour:Liver", "setting": "[2]; 1 h", "value": 15.68}, {"measurement": "Ratio Tumour:Lung", "setting": "[2]; 1 h", "value": 18.12}, {"measurement": "Ratio Tumour:Muscle", "setting": "[2]; 1 h", "value": 125.40}, {"measurement": "Ratio Tumour:Spleen", "setting": "[2]; 1 h", "value": 18.55}, {"measurement": "Ratio Tumour:Blood", "setting": "[2]; [3]", "value": 0.90}, {"measurement": "Ratio Tumour:Bone", "setting": "[2]; [3]", "value": 3.88}, {"measurement": "Ratio Tumour:Liver", "setting": "[2]; [3]", "value": 1.34}, {"measurement": "Ratio Tumour:Lung", "setting": "[2]; [3]", "value": 0.82}, {"measurement": "Ratio Tumour:Muscle", "setting": "[2]; [3]", "value": 4.49}, {"measurement": "Ratio Tumour:Spleen", "setting": "[2]; [3]", "value": 1.96}, {"measurement": "Ratio Tumour:Blood", "setting": "[2]; 2 h", "value": 113.17}, {"measurement": "Ratio Tumour:Bone", "setting": "[2]; 2 h", "value": 189.39}, {"measurement": "Ratio Tumour:Liver", "setting": "[2]; 2 h", "value": 15.57}, {"measurement": "Ratio Tumour:Lung", "setting": "[2]; 2 h", "value": 37.40}, {"measurement": "Ratio Tumour:Muscle", "setting": "[2]; 2 h", "value": 346.93}, {"measurement": "Ratio Tumour:Spleen", "setting": "[2]; 2 h", "value": 41.58}]}
